Experimental data taken from patent publication US20150315554A1, “CELL LINES EXPRESSING CFTR AND METHODS OF USING THEM” (Chromocell Corporation, priority 2009, published 2015).
“And” between values parts separate entries of the source, which are not always exact repeats. Identical values can stand only once.

Tested on: human CFTR
Assay: high-throughput compatible fluorescence membrane potential assay, forskolin dose-response in stable CFTR-expressing CHO cell lines
Assay type: cell-based
Conditions: stable CFTR-expressing CHO cell line, 15,000 cells/well, 384-well plate, membrane potential dye
Description: CHO cell lines stably expressing CFTR were maintained under standard cell culture conditions in Ham's F12 medium supplemented with 10% fetal bovine serum and glutamine. On the day before assay, the cells were harvested from stock plates and plated into black clear-bottom 384 well assay plates at a density that is sufficient to attain 90% confluency on the day of the assay. The assay plates were maintained in a 37° C. cell culture incubator under 5% CO2 for 22-24 hours. The media was then removed from the assay plates and blue membrane potential dye (Molecular Devices Inc.) diluted in loading buffer (137 mM NaCl, 5 mM KCl, 1.25 mM CaCl2, 25 mM HEPES, 10 mM glucose) was added and allowed to incubate for 1 hour at 37° C. The assay plates were then loaded on a fluorescent plate reader (Hamamatsu FDSS) and a cocktail of forskolin and IBMX dissolved in compound buffer (137 mM sodium gluconate, 5 mM potassium gluconate, 1.25 mM CaCl2, 25 mM HEPES, 10 mM glucose) was added. For forskolin dose-response experiments, cells of the produced stable CFTR-expressing cell lines, plated at a density of 15,000 cells/well in a 384-well plate were challenged with increasing concentration of forskolin, a known CFTR agonist. The cellular response as a function of changes in cell fluorescence was monitored over time by a fluorescent plate reader (Hamamatsu FDSS).

EC50: 256 nM and ~250 nM
Structure (SMILES): C=C[C@@]1(C)CC(=O)[C@]2(O)[C@@]3(C)[C@@H](O)CCC(C)(C)[C@@H]3[C@H](O)[C@H](OC(C)=O)[C@@]2(C)O1 [forskolin]
